Experimental findings from patent publication US5750754A, “Heterocyclic compounds” (Zeneca Limited, priority 1993, dated 1998) are described below.

Assay [1] has as its target T1, human, citrated, platelet-rich plasma (Homo sapiens, UniProt P05106+P08514).
T1 construct: aggregating human, citrated, platelet-rich plasma; endogenous in cells; host or cells: human platelets in citrated platelet-rich plasma
The assay is described as follows: Test (a): inhibition of ADP stimulated platelet aggregation (Born). The conditions noted are these: ADP induced aggregation of human platelet-rich plasma. Type of assay: cell-based. The method in brief:
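ADP added to human citrated platelet-rich plasma to build aggregation dose-response curves, repeated with increasing test compound (generally 10-^5 M to 10-^10 M). pA2 derived from the 50% response value for ADP with vs. without compound, averaged over several concentrations.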

Assay [2] has as its target T2, purified human platelet fibrinogen receptor (GPIIb/IIIa) (Homo sapiens, UniProt P05106+P08514).
T2 construct: is isolated from human platelet lysates; from tissue
Briefly: Test (b): GPIIb/IIIa ELISA, inhibition of biotinylated fibrinogen binding. The conditions noted are these: purified human platelet GPIIb/IIIa, ELISA; for IC50: read-out: Test (b): pIC50 (-log(IC50)), 50% inhibition of biotinylated fibrinogen binding to GPIIb/IIIa (converted). In outline:
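GPIIb/IIIa affinity-purified from human platelet lysates was coated on plates, blocked, then incubated 2 h at 30 °C with biotinylated fibrinogen ([…]) plus compound. Bound fibrinogen detected via streptavidin/biotinylated HRP and TMB, OD at 650 nm; pIC50 for 50% binding inhibition.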
Background: In an ELISA, binding on a coated surface is turned into a signal by an enzyme label.

Setting [3] is: read-out: Test (a): pA2 value indicating potency of platelet aggregation inhibition (converted).

pIC50: −log10 of the molar value. Counter-ions that a name gives are not always drawn. Like-named read-outs stand apart in the source and are kept apart here. Some results are limits rather than exact numbers.

T2 sequence (P08514 32-887 limits assumed): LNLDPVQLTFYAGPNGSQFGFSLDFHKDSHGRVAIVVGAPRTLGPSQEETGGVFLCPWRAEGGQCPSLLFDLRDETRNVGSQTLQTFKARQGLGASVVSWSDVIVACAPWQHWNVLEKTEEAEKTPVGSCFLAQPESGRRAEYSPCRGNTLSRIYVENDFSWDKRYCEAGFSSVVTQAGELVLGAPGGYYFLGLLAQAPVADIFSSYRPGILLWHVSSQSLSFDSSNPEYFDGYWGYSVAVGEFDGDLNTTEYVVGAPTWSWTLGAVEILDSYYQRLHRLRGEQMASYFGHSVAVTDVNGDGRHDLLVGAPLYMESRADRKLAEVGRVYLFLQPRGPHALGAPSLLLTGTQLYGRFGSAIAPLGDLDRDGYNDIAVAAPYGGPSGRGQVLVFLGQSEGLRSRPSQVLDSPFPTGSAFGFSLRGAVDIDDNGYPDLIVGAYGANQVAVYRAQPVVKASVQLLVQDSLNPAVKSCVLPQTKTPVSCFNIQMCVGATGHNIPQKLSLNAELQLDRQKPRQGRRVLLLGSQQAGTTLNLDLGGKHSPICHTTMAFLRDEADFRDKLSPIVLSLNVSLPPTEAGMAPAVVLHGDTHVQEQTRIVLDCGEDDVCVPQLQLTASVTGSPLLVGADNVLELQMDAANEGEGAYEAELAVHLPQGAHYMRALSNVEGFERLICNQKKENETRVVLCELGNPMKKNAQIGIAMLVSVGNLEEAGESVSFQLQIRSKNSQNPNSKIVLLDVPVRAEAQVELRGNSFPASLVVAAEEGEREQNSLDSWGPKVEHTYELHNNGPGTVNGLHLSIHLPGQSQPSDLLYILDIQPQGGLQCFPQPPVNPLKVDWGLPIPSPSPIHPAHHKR
T2 sequence (P08514 891-1039 limits assumed): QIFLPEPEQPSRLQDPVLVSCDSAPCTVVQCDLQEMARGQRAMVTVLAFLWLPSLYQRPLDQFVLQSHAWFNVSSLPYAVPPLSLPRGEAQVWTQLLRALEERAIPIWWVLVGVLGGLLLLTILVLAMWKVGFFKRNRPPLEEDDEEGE
T2 sequence (P05106 27-788): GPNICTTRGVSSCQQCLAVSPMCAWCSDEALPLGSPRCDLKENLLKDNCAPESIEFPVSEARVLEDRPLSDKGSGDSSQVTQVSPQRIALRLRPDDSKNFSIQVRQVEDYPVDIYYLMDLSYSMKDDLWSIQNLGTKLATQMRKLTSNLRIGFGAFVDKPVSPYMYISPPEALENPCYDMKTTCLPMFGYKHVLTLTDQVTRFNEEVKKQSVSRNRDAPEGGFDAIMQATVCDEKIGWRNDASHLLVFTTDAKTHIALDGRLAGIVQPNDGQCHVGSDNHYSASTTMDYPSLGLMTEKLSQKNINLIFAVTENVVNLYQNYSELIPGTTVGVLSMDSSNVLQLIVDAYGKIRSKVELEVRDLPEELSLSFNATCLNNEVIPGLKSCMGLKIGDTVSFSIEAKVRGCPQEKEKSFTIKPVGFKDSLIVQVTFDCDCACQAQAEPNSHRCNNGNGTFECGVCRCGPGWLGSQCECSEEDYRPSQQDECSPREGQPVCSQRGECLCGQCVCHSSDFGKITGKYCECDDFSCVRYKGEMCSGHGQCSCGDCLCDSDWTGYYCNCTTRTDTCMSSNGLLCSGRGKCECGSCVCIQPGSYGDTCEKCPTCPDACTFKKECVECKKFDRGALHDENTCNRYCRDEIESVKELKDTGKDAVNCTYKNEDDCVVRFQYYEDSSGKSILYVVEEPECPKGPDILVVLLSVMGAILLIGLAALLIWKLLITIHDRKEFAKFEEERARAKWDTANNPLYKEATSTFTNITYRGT
T1 sequence (P08514 32-887 limits assumed): as the sequence (P08514 32-887 limits assumed) above
T1 sequence (P08514 891-1039 limits assumed): as the sequence (P08514 891-1039 limits assumed) above
T1 sequence (P05106 27-788): as the sequence (P05106 27-788) above

On to `CCCCS(=O)(=O)N[C@@H](Cc1ccc(OCCCN(C)c2ccncc2)cc1)C(=O)OC` [Example 95, Methyl-2-S-(n-butylsulphonylamino)-3-[3-(N-methyl-N-4-pyridyl)aminopropoxy]phenylpropionate], for which, in assay [1] (setting [3]), the Kb was 10000 nM. For the same compound, the IC50 in assay [2] was 7940 nM.
For the compound `O=C(O)COc1cccc(C(=O)CN2CCN(c3ccncc3)CC2)c1` [Example 126, 3-[2-[4-(4-Pyridyl)piperazin-1-yl]acetyl]phenoxyacetic acid, dihydrochloride], in assay [1] (setting [3]), the Kb is 15800 nM. Further, the IC50 in assay [2] is 3160 nM.
For `CCCCS(=O)(=O)N[C@@H](Cc1ccc(OCCCCC2CCN(c3ccncc3)CC2)cc1)C(=O)OC` [Example 83, Methyl 2-S-(butylsulphonylamino)-3-[4-[4-[1-(4-pyridyl)piperidin-4-yl]-butoxy]phenyl]propionate] the same measures were 39800 nM and 2000 nM.
The matching figures for `COC(=O)COc1ccc(C(=O)CN2CCN(c3ccncc3)CC2)cc1OCC(=O)OC` [Example 3]: 501 nM and 251 nM.
In the case of `CCCCS(=O)(=O)NCc1ccc(CCN2CCN(c3ccncc3)CC2)cc1` [Example 185, N-[4-[2-[4-(4-Pyridyl)piperazin-1-yl]ethyl]phenyl]methyl-1-butanesulphonamide], the Kb in assay [1] (setting [3]) is 3980 nM. In addition, the IC50 in assay [2] was 15800 nM.
For `O=C(O)CCNC(=O)CCCCN1CCN(c2ccncc2)CC1` [Example 198, 3-[5-[4-(4-Pyridyl)piperazine-1-yl]pentanoyl]aminopropionic acid] the same measures were 794 nM and 20 nM.
The matching figures for `CCCCS(=O)(=O)N[C@@H](Cc1ccc(OC2CCN(c3ccncc3)CC2)cc1)C(=O)O` [Example 38, 2-S-(n-Butylsulphonylamino)-3-[4-[1-(4-pyridyl)piperidin-4-yl]oxyphenyl]propionic acid]: 31.6 nM and 2 nM.
For `O=C(O)CCCOc1ccc(N2CCN(c3ccncc3)CC2)cc1` [Example 51, 4-[4-[4-(4-Pyridyl)piperazin-1-yl]phenoxy]butyric acid], in assay [1] (setting [3]), the Kb is 12.6 to 100 nM. In assay [2], the IC50 was 3.98 to 25.1 nM.
On to `COC(=O)c1cc2cc(C(=O)CN3CCN(c4ccncc4)CC3)ccc2o1` [Example 25, Methyl 5-[2-[4-(4-pyridyl)piperazin-1-yl]acetyl]benzofuran-2-carboxylate], for which, in assay [1] (setting [3]), the Kb is 7940 nM. Also, the IC50 in assay [2] is 15800 nM.
Take `COCCNC(=O)COc1ccc(C(=O)CN2CCN(c3ccncc3)CC2)cc1` [Example 144, 2-[4-[2-[4-(4-Pyridyl)piperazin-1-yl]acetyl]phenoxy]-N-(2-methoxymethyl)-acetamide]: the Kb in assay [1] (setting [3]) was 5010 nM. Further, the IC50 in assay [2] was 5010 nM.
`CCOC(=O)CCCCOc1ccc(N2CCN(c3ccncc3)CC2)cc1` [Example 52]: in assay [1] (setting [3]), the Kb is 10000 nM. Further, in assay [2], the IC50 is more than 100000 nM.
`O=C(O)COc1ccc2c(CN3CCN(c4ccncc4)CC3)cccc2c1` [Example 76, 5-[[4-(4-Pyridyl)piperazin-1-yl]methylene]naphth-2-yloxyacetic acid]: the Kb in assay [1] (setting [3]) is 31600 nM. In addition, the IC50 in assay [2] was 1260 nM.
The matching figures for `CCCCS(=O)(=O)N[C@@H](Cc1ccc(OC2CCN(c3ccncc3)CC2)cc1)C(=O)OC` [Example 37, Methyl 2-S-(n-butylsulphonylamino)-3-[4-[1-(4-pyridyl)piperidin-4-yl]oxyphenyl]propionate]: 2510 nM and 200 nM.
As for `COC(=O)COc1ccc(C(=O)CN2CCN(c3ccncc3)CC2)c(C)c1` [Example 118, Methyl 4-[2-[4-(4-pyridyl)piperazin-1-yl]acetyl]-3-methylphenoxyacetate], in assay [1] (setting [3]), the Kb is 200 nM. Besides, the IC50 in assay [2] was 398 nM.
Turning to `CNC(=O)COc1ccc(C(=O)CN2CCN(c3ccncc3)CC2)cc1` [Example 143, 2-[4-[2-[4-(4-Pyridyl)piperazin-1-yl]acetyl]phenoxy]-N-methylacetamide], the Kb in assay [1] (setting [3]) was 10000 nM. In assay [2], the IC50 was 31600 nM.
In the case of `CCOC(=O)COc1ccc(C(=O)CN2CCN(c3ccncc3)CC2)cc1` [Example 136, Ethyl-4-[2-[4-(4-pyridyl)piperazin-1-yl]acetyl]phenoxyacetate], the Kb in assay [1] (setting [3]) is 126 nM. For the same compound, the IC50 in assay [2] was 2510 nM.
Take `O=C(O)COc1ccc(OC2CCN(c3ccncc3)CC2)cc1` [Example 156, 4-[1-(4-Pyridyl)piperidin-4-yl]oxyphenoxyacetic acid]: the Kb in assay [1] (setting [3]) was 20000 nM. The IC50 in assay [2] was 1580 nM.
For `COC(=O)COc1ccc(C(=O)CN2CCN(c3ccnc4c3CCCC4)CC2)cc1` [Example 45, Methyl 4-[2-[4-(5,6,7,8-tetrahydro-4-quinolinyl)piperazin-1-yl]-acetyl]phenoxyacetate] the same measures were 3980 nM and 794 nM.
The matching figures for `COc1cc(C(=O)CN2CCN(c3ccncc3)CC2)ccc1OCC(=O)O` [Example 6, 4-[2-[4-(4-Pyridyl)piperazin-1-yl]acetyl]-2-methoxyphenoxyacetic acid]: 63.1 nM and 25.1 nM.
For `O=C(O)COc1c(Cl)cc(C(=O)CN2CCN(c3ccncc3)CC2)cc1Cl` [Example 123, 4-[2-[4-(4-Pyridyl)piperazin-1-yl]acetyl]-2,6-dichlorophenoxyacetic acid, dihydrochloride], the Kb in assay [1] (setting [3]) was 1000 nM. In assay [2], the IC50 is 100 nM.
The matching figures for `O=C(O)COc1ccc(C(=O)CN2CCC(=Cc3cnccc3N3CCCC3)C2)cc1` [Example 108, 4-[2-[3-[4-(1-Pyrrolidinyl)pyridin-3yl]methylidene]pyrrolidin-1-yl]-acetylphenoxyacetic acid]: 501 nM and 1260 nM.
In the case of `O=C(CN1CCN(c2ccncc2)CC1)c1ccc2oc(C(=O)O)cc2c1` [Example 26, 5-[2-[4-(4-Pyridyl)piperazin-1-yl]acetyl]benzofuran-2-carboxylic acid], the Kb in assay [1] (setting [3]) is 1580 nM. In addition, the IC50 in assay [2] was 631 nM.
For `CCCc1cc(N2CCN(c3ccncc3)CC2)ccc1OCCCC(=O)OCC` [Example 207, Ethyl 4-[2-n-propyl-4-[4-(4-pyridyl)piperazin-1-yl]phenoxy]butyrate] the same measures were 316 nM and 1000 nM.
The matching figures for `O=C(O)COc1ccc(CC(=O)N2CCN(c3ccncc3)CC2)cc1` [Example 150, 4-[2-[4-(4-Pyridyl)piperazin-1-yl]carbonylmethyl]phenoxyacetic acid, dihydrochloride]: 316 nM and 316 nM.
With `CCCCS(=O)(=O)N[C@@H](Cc1ccc(OCCCN(C)c2ccncc2)cc1)C(=O)O` [Example 96], the Kb in assay [1] (setting [3]) is 79.4 nM. Further, in assay [2], the IC50 was 3.98 nM.
The compound `CC(C(=O)c1ccc(OCC(=O)O)cc1)N1CCN(c2ccncc2)CC1` (racemic) [Example 17, RS 4-[2-[4-(4-Pyridyl)piperazin-1-yl]2-methylacetyl]phenoxyacetic acid sodium chloride adduct dihydrate] showed a Kb in assay [1] (Test (a): pA2 value indicating potency of platelet aggregation inhibition) of 39.8 nM. The negative logarithm of the IC50 (pIC50) in assay [2] (Test (b): pIC50 (-log(IC50)), 50% inhibition of biotinylated fibrinogen binding to GPIIb/IIIa) is 7.70.
With `CN(C)c1ccncc1COc1ccc(OCCCC(=O)O)cc1` [Example 113, 4-[4-[(4-Dimethylaminopyrid-3-yl)methoxy]phenoxy]butanoic acid], the Kb in assay [1] (setting [3]) is more than 100000 nM. Besides, in assay [2], the IC50 was 25100 nM.
As for `COc1cc(OCC(=O)O)ccc1C(=O)CN1CCN(c2ccncc2)CC1` [Example 128, 4-[2-[4-(4-Pyridyl)piperazin-1-yl]acetyl]-3-methoxy-phenoxyacetic acid, dihydrochloride], in assay [1] (setting [3]), the Kb was 158 nM. The IC50 in assay [2] was 501 nM.
The matching figures for `COC(=O)COc1ccc(NC(=O)N2CCN(c3ccncc3)CC2)cc1` [Example 63, Methyl 4-[[4-(4-pyridyl)piperazin-1-yl]carboxamido]phenoxy acetate]: 126 nM and 316 nM.
On to `COC(=O)CCc1ccc(OCC2CCN(c3ccncc3)CC2)cc1` [Example 161, Methyl 3-[4-[1-(4-pyridyl)piperidin-4-yl]methoxyphenyl]propionate], for which, in assay [1] (setting [3]), the Kb was 12600 nM. Further, the IC50 in assay [2] is 50100 nM.
For `O=C(O)CCCOc1ccc(N2CCN(c3ccncc3)CC2)cc1` [Example 200, 4-[4-[4-(4-Pyridyl)piperazine-1-yl]phenoxy]butyric acid, hydrochloride salt] the same measures were 12.6 nM and 3.98 nM.
On to `CN(C)c1ccncc1CCCOc1ccc(OCCCC(=O)O)cc1` [Example 224, 4-[4-[3-(4-dimethylaminopyrid-3-yl)propyloxy]phenoxy]butyric acid], for which the Kb in assay [1] (setting [3]) was 31600 nM. In addition, in assay [2], the IC50 is 501 nM.
For `CCCCS(=O)(=O)NCc1ccc(NC(=O)C2CCN(c3ccncc3)CC2)cc1` [Example 170, N-[4-[4-[1-(4-Pyridyl)piperidin-4-yl]carboxamidophenyl]-methyl]-1-butanesulphonamide] the same measures were 15800 nM and more than 100000 nM.
For the compound `O=C(O)CO[C@@H]1CCN(C(=O)CN2CCN(c3ccncc3)CC2)C[C@H]1OCC(=O)O` (relative stereo) [Example 105], in assay [1] (setting [3]), the Kb is 251 nM. Besides, the IC50 in assay [2] was 251 nM.

A word on the pIC50: it is the negative decadic logarithm of the IC50, by convention in mol/L.
